What was measured:
[1] = system: PBQ-induced writhing in mice; assay: PBQ-Writhing assay; type: in vivo; settings: male mice, subcutaneous, ED50 from number of animals protected compared to saline controls
Protocol: PBQ-Writhing assay. Groups of 10 male mice weighing 20 to 35 grams are used for each dose and for the vehicle control. Writhing is induced 30 or 60 minutes following drug or drug vehicle administration by the intraperitoneal injection of a 0.025 percent solution of PBQ and 5 percent ethanol. The number of separate writhing motions occurring in a ten minute period starting 5 minutes following the PBQ challenge is counted for each mouse. A positive antinociceptive affect is assured when an individual animals' writhing frequency is less than or equal to 50 percent of the vehicle control group median frequency. ED50 values based on the number of positive responders per dose group is determined using the method of Litchfield and Wilcoxon. M. R. Fennessy et al. The Assessment of and Problems Involved in the Experimental Evaluation of Narcotic Analgesics. In Methods in Narcotics Research, Marcel Dekker, Inc., New York, 1975. H. Bomberg et al. Use of Writhing Test for Evaluating Analgesic Activity of Narcotic Analgesics, Proc. Soc. Ext. Biol. Med. 118: 763-766, 1965.
The compounds of the invention were evaluated with respect to analgesic activity utilizing the test procedures described previously. Set forth in Table I below are the test results in the writhing assay for certain preferred compounds of the invention within formula I. The data summarized represents the ED50 calculated on the basis of the number of animals protected at a dose of 10 mg/Kg of the active test compound compared to saline controls.

[2] = system: brain opiate receptor sites; settings: partially purified brain opiate receptor sites; cited from earlier work
[3] = system: opiate activity; settings: cited from earlier work
[4] = system: rat; settings: injected directly into the brain of the rat; cited from earlier work

Molecule | Activity (ED50 mg/Kg - Administered Subcutaneously) [1] | binding to opiate receptor sites [2] | activity in bioassays for opiate activity [3] | analgesic activity [4]
2,6-dimethyltyrosyl-D-norleucylglycyl-3-cyclohexyl-N-(6-methoxy-6-oxohexyl)-L-alaninamide, monohydrochloride(diastereomer-D) [Example 104] | 0.20 mg/kg |  |  | 
COC(=O)CCCCCNC(=O)[C@H](CC1CCCCC1)N(C)C(=O)CNC(=O)[C@@H](CCSC)NC(=O)[C@@H](N)Cc1c(C)cc(O)cc1C.Cl [Example 43, 2,6-dimethyl-L-tyrosyl-D-methionylglycyl-N-(6-methoxy-6-oxohexyl)-3-cyclohexyl-N^α -methyl-L-alaninamide monohydrochloride] | 0.20 mg/kg |  |  | 
CSCC[C@@H](NC(=O)[C@@H](N)Cc1c(C)cc(O)cc1C)C(=O)NCC(=O)N[C@@H](CC1CCCCC1)C(=O)NCCCCCC(=O)O.Cl [Example 127, 2,6-dimethyl-L-tyrosyl-D-methionylglycyl-N-(5-carboxypentyl)-3-cyclohexyl-L-alaninamide, monohydrochloride] | 0.09 mg/kg |  |  | 
methionine enkephalin |  | binds stereospecifically | highly active | weak, fleeting analgesic activity

From patent US4603121A, “Enkephalin analogs” (G. D. Searle & Co., priority 1984, dated 1986)
